Source: patent publication US20230339878A1, “SLC26A3 INHIBITORS AND USE THEREOF” (THE REGENTS OF THE UNIVERSITY OF CALIFORNIA, priority 2018, published 2023)
pIC50: −log10 of the molar value. Entries after “also recorded” stand apart in the source; their conditions may differ.

Key:
PAT-1 (slc26a6) = molecular target: T1, PAT-1 (slc26a6) (Mus musculus, UniProt Q8CIW6); assay: Selectivity: slc26a6 Cl-/I- exchange in HEK cells; type: cell-based, murine; conditions: 10 µM
T1 construct: full-length slc26a6 was subcloned into pLVX-YFP-T2A-Puro as an EcoRI to XbaI fragment; host or cells: HEK293 cells infected with lentivirus, puromycin selected
T1 sequence (Q8CIW6 1-758): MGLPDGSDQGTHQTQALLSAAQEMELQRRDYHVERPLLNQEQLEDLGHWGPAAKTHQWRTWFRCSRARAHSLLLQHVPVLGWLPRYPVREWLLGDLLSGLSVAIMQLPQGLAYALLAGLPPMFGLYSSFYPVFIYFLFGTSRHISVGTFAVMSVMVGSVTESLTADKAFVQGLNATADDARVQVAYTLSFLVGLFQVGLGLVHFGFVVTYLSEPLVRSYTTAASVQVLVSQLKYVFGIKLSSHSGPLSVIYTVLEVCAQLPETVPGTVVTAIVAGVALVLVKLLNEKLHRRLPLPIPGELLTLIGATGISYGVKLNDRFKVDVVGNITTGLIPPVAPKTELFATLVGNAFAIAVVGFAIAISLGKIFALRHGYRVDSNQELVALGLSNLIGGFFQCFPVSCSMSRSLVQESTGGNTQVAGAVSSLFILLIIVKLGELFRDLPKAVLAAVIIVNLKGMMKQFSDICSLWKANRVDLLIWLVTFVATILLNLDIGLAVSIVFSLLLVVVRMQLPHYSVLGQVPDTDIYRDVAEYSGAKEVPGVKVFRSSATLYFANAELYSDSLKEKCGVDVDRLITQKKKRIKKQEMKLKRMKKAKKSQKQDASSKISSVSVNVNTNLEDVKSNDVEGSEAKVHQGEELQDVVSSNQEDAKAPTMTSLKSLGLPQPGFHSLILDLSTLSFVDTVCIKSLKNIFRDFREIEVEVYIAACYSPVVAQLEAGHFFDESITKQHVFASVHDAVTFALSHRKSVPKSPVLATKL

slc26a3 = molecular target: T2, slc26a3 (Mus musculus, UniProt Q9WVC8); assay: slc26a3-mediated Cl-/HCO3- exchange, BCECF cytoplasmic pH in slc26a3-expressing FRT cells; type: cell-based, murine; conditions: increase in cytoplasmic pH, read-out: IC50 for inhibition of slc26a3-mediated Cl-/HCO3- exchange
T2 construct: host or cells: Fischer rat thyroid (FRT) cells expressing YFP, clonal line FRT-YFP-slc26a3
T2 sequence (Q9WVC8 1-757): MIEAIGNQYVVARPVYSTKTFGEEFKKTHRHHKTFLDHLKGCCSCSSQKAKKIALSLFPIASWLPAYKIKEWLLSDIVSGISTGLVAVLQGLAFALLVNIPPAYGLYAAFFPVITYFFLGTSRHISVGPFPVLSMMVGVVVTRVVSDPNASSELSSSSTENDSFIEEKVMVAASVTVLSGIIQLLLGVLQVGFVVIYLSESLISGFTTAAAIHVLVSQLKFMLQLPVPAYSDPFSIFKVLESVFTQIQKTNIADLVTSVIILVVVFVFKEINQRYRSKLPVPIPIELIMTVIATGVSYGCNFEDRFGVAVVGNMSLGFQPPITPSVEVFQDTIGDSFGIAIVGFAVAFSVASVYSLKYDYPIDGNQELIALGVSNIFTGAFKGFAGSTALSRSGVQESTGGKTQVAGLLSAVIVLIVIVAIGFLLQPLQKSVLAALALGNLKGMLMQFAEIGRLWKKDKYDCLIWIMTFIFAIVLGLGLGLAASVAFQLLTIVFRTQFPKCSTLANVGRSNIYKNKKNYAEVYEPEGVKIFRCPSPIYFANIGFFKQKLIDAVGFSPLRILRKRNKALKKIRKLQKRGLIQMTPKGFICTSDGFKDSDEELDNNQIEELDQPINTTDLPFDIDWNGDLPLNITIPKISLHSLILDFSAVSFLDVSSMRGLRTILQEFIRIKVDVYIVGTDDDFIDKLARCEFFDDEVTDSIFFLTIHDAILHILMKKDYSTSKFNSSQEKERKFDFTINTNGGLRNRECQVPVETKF
Experimental: Concentration-dependence measurements for inhibition of slc26a3-mediated exchange of Cl^- and HCO3^-, the physiologically relevant activity of slc26a3, was measured using slc26a3-expressing FRT cells labeled with BCECF as a cytoplasmic pH sensor. Labeled cells were initially incubated in a Cl^--containing HCO3^- buffered solution, and HCO3^- influx / Cl^- efflux with cytoplasmic alkalinization was produced by addition of a gluconate-containing HCO3^- buffered solution. […] Concentration-dependence measurements for inhibition of slc26a3-mediated Cl^-/SCN^- exchange gave an IC50 of ~0.3 µM (FIG. 4B).
YFP-based assays of CFTR, pendrin and TMEM16A were as described. HEK cells transfected to express YFP and SLC26A3, slc26a6 or slc26a9 were functionally assayed using a Cl^-/I^- exchange protocol. Assays of Cl^-/HCO3^- exchange were done using BCECF as an intracellular pH indicator as described for pendrin. Short-circuit current (ISC) measurements in well-differentiated HBE cell cultures were done using techniques known in the art.

## Cc1c(CC(=O)O)c(=O)oc2c(C)c(OCc3cccc(Br)c3)ccc12 [Compound A1]
PAT-1 (slc26a6)
  effect on Cl-/I- exchange activity of PAT-1 (slc26a6): did not alter; also recorded: did not inhibit; also recorded: differences not significant
slc26a3
  pIC50: ~7.00
